The source of these data is patent US20220089609A1, “SUBSTITUTED QUINAZOLINONE DERIVATIVES AND THEIR USE AS POSITIVE ALLOSTERIC MODULATORS OF MGLUR4” (DOMAIN THERAPEUTICS, priority 2018, published 2022).

The term melting point denotes the temperature, or range, at which the solid turns liquid.

Data set [1] deals with haloperidol-induced catalepsy. As to the kind of experiment: Haloperidol-induced catalepsy model in the mouse (bar test). It is filed as in vivo. To be noted: 1 mg/kg per os 60 minutes after haloperidol (1 mg/kg i.p.), measured between 135 and 270 min after haloperidol injection. The method, then: This method, which detects anti-cataleptic activity, follows those well-known by one skilled in the art and described in the literature (e.g. Pires et al., Braz J Med and Biol Res 38, 1867-1872, 2005; Shiozaki et al., Psychopharmacology 147, 90-95, 1999). Catalepsy is a symptom of Parkinson's disease, and is characterized by muscular rigidity and fixity of posture.
The procedure applied to the compounds of the invention is as follows:
Catalepsy is assessed using the bar test in mice submitted to acute administration of haloperidol (1 mg/kg, intra-peritoneal or i.p.). Mice (male RjOrl:SWISS mice, weighing 30-35 g at the beginning of the experiment) were placed (6 to 9 in each group) in Plexiglas cages, and injected with haloperidol (1 mg/kg i.p.). The catalepsy response of one mouse was measured when the animal maintained an imposed posture with both forelimbs placed on a horizontal 0.9 cm diameter wire bar suspended 4 cm above a platform. The end point of catalepsy was considered to occur when both forelimbs were removed from the bar, the mouse climbed onto the bar or if the animal moved its head in an exploratory manner. A cut-off time of 180 seconds was applied. The degree of catalepsy was scored 45 minutes after haloperidol administration and continued at 45 minutes intervals for a total of 270 minutes. Between determinations, the animals were returned to their home cages.
Compounds 81, 100, 114, 119, 143 and 144 were evaluated at 1 mg/kg, administered per os, 60 minutes after haloperidol, and compared with a vehicle control group.
The anti-cataleptic effect of the compound was compared to vehicle-treated group using ANOVA test followed by the Dunnett's test.

The next data set addresses T1, human mGluR4 (hmGluR4) (Homo sapiens, UniProt Q14833).
T1 construct: expressed in transfected cells; host or cells: HEK-293 cells, transient co-transfection by electroporation
As to the kind of experiment: Calcium assay EC50 determination, positive allosteric modulator activity on hmGluR4 transiently over-expressed in HEK-293 cells. In kind it is cell-based. To be noted: PAM mode with EC20 glutamate; hmGluR4 in HEK-293 cells; intracellular calcium (Fluo4AM); read-out: mGluR4 positive allosteric modulator activity, half maximal effective concentration (EC50). In a few lines: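 HEK-293 cells transiently co-transfected with hmGluR4, chimeric G protein and glutamate transporters; Fluo4AM calcium read (ex 485/em 525 nm) on FLIPR Tetra. Compound alone 10 min for agonism, then EC20 glutamate with 3 min recording for PAM activity, versus buffer or EC20 glutamate basal.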
(In general: Calcium assays in cells follow changes in intracellular calcium, usually with a dye or a luminescent sensor.)

“And” between values parts separate entries of the source, which are not always exact repeats. Equal values may be shown once. Where a name gives a salt, the structure may show the parent alone.

T1 sequence (Q14833 33-912): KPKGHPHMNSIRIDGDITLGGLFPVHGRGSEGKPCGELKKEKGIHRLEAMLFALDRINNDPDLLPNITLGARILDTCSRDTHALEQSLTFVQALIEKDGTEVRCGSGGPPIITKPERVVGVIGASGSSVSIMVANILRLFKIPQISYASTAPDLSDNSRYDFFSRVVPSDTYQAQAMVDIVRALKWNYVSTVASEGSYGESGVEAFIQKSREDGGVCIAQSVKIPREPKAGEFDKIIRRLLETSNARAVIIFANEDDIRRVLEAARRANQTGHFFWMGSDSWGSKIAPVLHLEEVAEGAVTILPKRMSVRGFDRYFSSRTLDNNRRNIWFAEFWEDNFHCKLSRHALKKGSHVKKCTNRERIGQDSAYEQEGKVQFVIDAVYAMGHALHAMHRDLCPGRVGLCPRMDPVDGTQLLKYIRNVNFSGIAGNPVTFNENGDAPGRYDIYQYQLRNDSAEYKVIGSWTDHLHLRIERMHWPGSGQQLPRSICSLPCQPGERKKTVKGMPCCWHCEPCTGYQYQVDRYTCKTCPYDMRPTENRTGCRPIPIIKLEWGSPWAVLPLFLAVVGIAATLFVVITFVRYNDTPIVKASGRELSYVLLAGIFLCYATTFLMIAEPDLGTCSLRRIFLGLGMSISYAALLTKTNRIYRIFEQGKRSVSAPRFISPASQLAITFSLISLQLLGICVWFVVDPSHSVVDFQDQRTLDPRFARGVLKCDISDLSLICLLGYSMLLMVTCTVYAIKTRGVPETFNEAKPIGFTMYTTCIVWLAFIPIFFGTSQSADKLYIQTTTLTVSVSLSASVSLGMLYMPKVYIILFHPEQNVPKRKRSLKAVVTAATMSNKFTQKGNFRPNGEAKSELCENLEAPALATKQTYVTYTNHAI

With `Cc1cc(CCN2CCOCC2)cc2c(=O)[nH]c(-c3cc4ccsc4cn3)nc12` [Compound 100, 8-methyl-6-(2-morpholin-4-yl-ethyl)-2-thieno[2,3-c]pyridin-5-yl-3H-quinazolin-4-one hydrochloride], the “anti-cataleptic effect (mean time of latency spent on the bar) compared to vehicle-treated group” value in data set [1] is given as “significant anti-cataleptic effect”. Further, the EC50 on human mGluR4 (hmGluR4) is at most 100 nM.

On to `Cc1cc(CN2CCOCC2)cc2c(=O)[nH]c(-c3cc4ccsc4cn3)nc12` [Compound 114, 8-methyl-6-(morpholinomethyl)-2-thieno[2,3-c]pyridin-5-yl-3H-quinazolin-4-one hydrochloride], for which, in data set [1], the “anti-cataleptic effect (mean time of latency spent on the bar) compared to vehicle-treated group” value was “significant anti-cataleptic effect”. Moreover, the EC50 at human mGluR4 (hmGluR4) is at most 100 nM.

Molecule `Cc1cc(OC2CCC(=O)N(C)C2)cc2c(=O)[nH]c(-c3cc4ccsc4cn3)nc12` (stereo not shown) [Compound 81, 8-Methyl-6-(1-methyl-6-oxo-piperidin-3-yloxy)-2-thieno[2,3-c]pyridin-5-yl-3H-quinazolin-4-one] had a melting point of 221 to 225 °C. Besides, the “anti-cataleptic effect (mean time of latency spent on the bar) compared to vehicle-treated group” value in data set [1] is on record as “significant anti-cataleptic effect”. Further, the EC50 at human mGluR4 (hmGluR4) was at most 100 nM.

`Cc1cc(OC2CCC(=O)N(C)C2)cc2c(=O)[nH]c(-c3cc4sccc4cn3)nc12` (stereo not shown) [Compound 129, 8-Methyl-6-(1-methyl-6-oxo-piperidin-3-yloxy)-2-thieno[3,2-c]pyridin-6-yl-3H-quinazolin-4-one] registered a melting point of 90 to 110 °C. Further, the EC50 at human mGluR4 (hmGluR4) was at most 100 nM.

`Cl.O=c1[nH]c(-c2cc3sccc3cn2)nc2ccc(OCCCc3cccnc3)cc12` [Compound 37, 6-(3-Pyridin-3-yl-propoxy)-2-thieno[3,2-c]pyridin-6-yl-3H-quinazolin-4-one hydrochloride] had a melting point of 149 to 154 °C. For the same molecule, the EC50 at human mGluR4 (hmGluR4) fell in the range of 100 to 1000 nM.

On to `Cc1cc(CCN2CCOCC2)cc2c(=O)[nH]c(-c3cc4sccc4cn3)nc12.Cl` [Compound 123, 8-Methyl-6-(2-morpholin-4-yl-ethyl)-2-thieno[3,2-c]pyridin-6-yl-3H-quinazolin-4-one hydrochloride], for which the melting point was above 250 °C. Further, the EC50 on human mGluR4 (hmGluR4) is at most 100 nM.

The molecule `COc1cc(CCN2CCOCC2)cc2c(=O)[nH]c(-c3cc(C(F)(F)F)ccn3)nc12.Cl` [Compound 158, 8-Methoxy-6-(2-morpholinoethyl)-2-(4-(trifluoromethyl)pyridin-2-yl)quinazolin-4(3H)-one hydrochloride] showed a melting point above 250 °C. Also, the EC50 at human mGluR4 (hmGluR4) lay in the range of 1000 to 10000 nM.

As to `Cl.O=c1[nH]c(-c2cc3sccc3cn2)nc2ccc(OCCCc3ccncc3)cc12` [Compound 3, 6-(3-Pyridin-4-yl-propoxy)-2-thieno[3,2-c]pyridin-6-yl-3H-quinazolin-4-one hydrochloride], the melting point was above 250 °C. Further, the EC50 at human mGluR4 (hmGluR4) was 100 to 1000 nM and < 1000 nM.

`Cc1cc(CCN2CCN(C)C(=O)C2)cc2c(=O)[nH]c(-c3cc4ccsc4cn3)nc12.Cl` [Compound 142, 8-Methyl-6-[2-(4-methyl-3-oxo-piperazin-1-yl)ethyl]-2-thieno[2,3-c]pyridin-5-yl-3H-quinazolin-4-one hydrochloride] registered a melting point above 250 °C. Moreover, the EC50 at human mGluR4 (hmGluR4) was 100 to 1000 nM.

Molecule `Cl.O=c1[nH]c(-c2cc3ccsc3cn2)nc2ccc(OCCCc3cnccn3)cc12` [Compound 61, 6-(3-Pyrazin-2-yl-propoxy)-2-thieno[2,3-c]pyridin-5-yl-3H-quinazolin-4-one hydrochloride] registered a melting point of 230 to 240 °C. Moreover, the EC50 at human mGluR4 (hmGluR4) was 100 to 1000 nM.

`Cc1cc(CN2CCOCC2)cc2c(=O)[nH]c(-c3cc4cccn4cn3)nc12.Cl` [Compound 125, 8-Methyl-6-(morpholinomethyl)-2-pyrrolo[1,2-c]pyrimidin-3-yl-3H-quinazolin-4-one hydrochloride]: the melting point was above 250 °C. Further, the EC50 at human mGluR4 (hmGluR4) was at most 100 nM.

In turn, `Cl.O=c1[nH]c(-c2cc(C(F)(F)F)ccn2)nc2ccc(OCCCc3ccncc3)cc12` [Compound 9, 6-(3-Pyridin-4-yl-propoxy)-2-(4-trifluoromethyl-pyridin-2-yl)-3H-quinazolin-4-one hydrochloride] had a melting point of 239 to 245 °C. The EC50 at human mGluR4 (hmGluR4) is 100 to 1000 nM and < 1000 nM.

Consider `Cc1cc(CN2CCSCC2)cc2c(=O)[nH]c(-c3cc4ccsc4cn3)nc12.Cl` [Compound 137, 8-Methyl-2-thieno[2,3-c]pyridin-5-yl-6-(thiomorpholinomethyl)-3H-quinazolin-4-one hydrochloride], for which the melting point is above 250 °C. In addition, on human mGluR4 (hmGluR4), the EC50 was at most 100 nM.

As to `Cc1cc(CCN2CCCOCC2)cc2c(=O)[nH]c(-c3cnc4ccsc4c3)nc12.Cl` [Compound 122, 8-Methyl-6-(2-[1,4]oxazepan-4-yl-ethyl)-2-thieno[3,2-b]pyridin-6-yl-3H-quinazolin-4-one hydrochloride], the melting point is above 250 °C. Besides, the EC50 at human mGluR4 (hmGluR4) is at most 100 nM.

Consider `Cc1cc(O[C@@H](C)C2CCOCC2)cc2c(=O)[nH]c(-c3cc(C(F)(F)F)ccn3)nc12` [Compound 111-S, S-8-Methyl-6-[1-(tetrahydro-pyran-4-yl)-ethoxy]-2-(4-trifluoromethyl-pyridin-2-yl)-3H-quinazolin-4-one], for which the melting point is 120 to 132 °C. Besides, the EC50 on human mGluR4 (hmGluR4) fell in the range of 100 to 1000 nM.

The molecule `Cl.O=c1[nH]c(-c2ccccn2)nc2ccc(OCCCc3ccncc3)cc12` [Compound 5, 2-Pyridin-2-yl-6-(3-pyridin-4-yl-propoxy)-3H-quinazolin-4-one hydrochloride] had a melting point above 250 °C. In addition, on human mGluR4 (hmGluR4), the EC50 is 100 to 1000 nM and < 1000 nM.

On to `Cc1cc(CN2CCS(=O)(=O)CC2)cc2c(=O)[nH]c(-c3cc4sccc4cn3)nc12` [Compound 150, 6-[(1,1-Dioxo-1,4-thiazinan-4-yl)methyl]-8-methyl-2-thieno[3,2-c]pyridin-6-yl-3H-quinazolin-4-one], for which the melting point is 245 to 250 °C. Further, on human mGluR4 (hmGluR4), the EC50 is at most 100 nM.

With `Cc1cc(CC(=O)N2CCOCC2)cc2c(=O)[nH]c(-c3cc4cccn4cn3)nc12` [Compound 134, 8-Methyl-6-(2-morpholino-2-oxo-ethyl)-2-pyrrolo[1,2-c]pyrimidin-3-yl-3H-quinazolin-4-one], the melting point lay within 254 to 256 °C. Besides, at human mGluR4 (hmGluR4), the EC50 is at most 100 nM.

Molecule `O=c1[nH]c(-c2cc3ccsc3cn2)nc2ccc(OCCCc3cocn3)cc12` [Compound 64, 6-(3-Oxazol-4-yl-propoxy)-2-thieno[2,3-c]pyridin-5-yl-3H-quinazolin-4-one] returned a melting point of 197 to 199 °C. Besides, the EC50 at human mGluR4 (hmGluR4) fell in the range of 100 to 1000 nM.

Molecule `O=c1[nH]c(-c2cc3cccn3cn2)nc2ccc(OCCCc3ccncc3)cc12` [Compound 1, 6-(3-pyridin-4-yl-propoxy)-2-pyrrolo[1,2-c]pyrimidin-3-yl-3H-quinazolin-4-one] returned a melting point of 202 to 206 °C. Besides, the EC50 on human mGluR4 (hmGluR4) was 100 to 1000 nM.

`Cl.O=c1[nH]c(-c2cc3sccc3cn2)nc2ccc(OCCN3CCOCC3)cc12` [Compound 35, 6-(2-Morpholin-4-yl-ethoxy)-2-thieno[3,2-c]pyridin-6-yl-3H-quinazolin-4-one hydrochloride] came in with a melting point above 250 °C. Moreover, at human mGluR4 (hmGluR4), the EC50 was in the range of 1000 to 10000 nM.

For the molecule `Cc1cc(CCN2CC3(COC3)C2)cc2c(=O)[nH]c(-c3cc4sccc4cn3)nc12` [Compound 146, 8-Methyl-6-[2-(2-oxa-6-azaspiro[3.3]heptan-6-yl)ethyl]-2-thieno[3,2-c]pyridin-6-yl-3H-quinazolin-4-one], the melting point lay in the range of 160 to 200 °C. Moreover, the EC50 on human mGluR4 (hmGluR4) was 100 to 1000 nM.

Molecule `Cc1cc(CCN2CCN(C)C(=O)C2)cc2c(=O)[nH]c(-c3cc(C(F)(F)F)ccn3)nc12.Cl` [Compound 144, 8-Methyl-6-[2-(4-methyl-3-oxo-piperazin-1-yl)ethyl]-2-[4-(trifluoromethyl)-2-pyridyl]-3H-quinazolin-4-one hydrochloride] displayed a melting point of 148 to 150 °C. In addition, at human mGluR4 (hmGluR4), the EC50 was in the range of 100 to 1000 nM.

With `Cc1cc(CN2CCC3(CC2)COC3)cc2c(=O)[nH]c(-c3cc4sccc4cn3)nc12` [Compound 155, 8-Methyl-6-(2-oxa-7-azaspiro[3.5]nonan-7-ylmethyl)-2-thieno[3,2-c]pyridin-6-yl-3H-quinazolin-4-one], the melting point is above 250 °C. Besides, the EC50 on human mGluR4 (hmGluR4) is at most 100 nM.
